Measurements published in patent publication US11236129B2, “IL-17A binding peptides and medical uses thereof” (Dompe' Farmaceutici S.P.A., priority 2018, dated 2022).
Like-named read-outs stand apart in the source and are kept apart here. Residues, ends and D or L forms follow the SMILES beside them.

Experiments:
[1] = Permeability test across stratified human corneal epithelial cells; format: in vitro ADME; conditions: Permeability (Papp)
Description: (§1) The objective of this study was to evaluate the apparent permeability coefficient (Papp) value of the peptides across stratified human corneal epithelial cells. All peptides were tested at 50 μM in duplicate.
(§2) In particular, human corneal epithelial cells (hCEPIC) were stratified on Transwell cell culture inserts (Corning, N.Y., USA). The permeation experiments were performed taking samples from receiver chambers at 5, 30, 60 minutes time points and from donor chambers at the same time points. Each aliquot collected was analyzed by HPLC instrument (Knauer) equipped with C18 Vertex Plus Column (Knauer) thermostatically controlled at 40° C. The rate (apparent permeability coefficient, Papp) of the study compounds was calculated and compared to the Papp values of the low and high permeability markers, 6-carboxyfluorescein and Rhodamine B, respectively.
(§3) The apparent permeability coefficient (Papp) was calculated according to Equation: Papp=(I/A*C0)(dM/dt)
(§4) where dM/dt is the flux (nanomoles per second) across the cell layers;
(§5) A (square centimeters) is the exposed surface area of the insert membrane;
(§6) C0 is the initial drug concentration (micromolar) in the donor compartment at t=0 (Xiang et al., Drug Metab Dispos. 2009 May; 37(5):992-8.

[2] = target: IL-17RA/IL17RC dimerization induced by IL-17A (Homo sapiens, UniProt Q16552); experiment: IL-17RA/IL17RC dimerization assay in response to IL-17A (PathHunter Cytokine Receptor Assay); format: cell-based; conditions: IL-17A at EC80; read-out: IC50 in IL-17RA/IL7RC dimerization assay
How it was run: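 PathHunter cells with IL-17RA and IL-17RC tagged for β-galactosidase complementation were preincubated 60 min with peptide (1% vehicle). IL-17A was then added at EC80 for 6–16 h at 37 °C, and chemiluminescence was read. Inhibition is relative to the EC80 and vehicle controls.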

[3] = Isoelectric point, log D and log P (SiriusT3); format: physicochemical; conditions: for IP (isoelectric point): 25±1° C., 0.15 M KCl
[4] = format: physicochemical; conditions: pH 7.8
How it was run: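 Peptides dissolved in phosphate buffer pH 7.8 as 10 mM stocks (more dilute for less soluble ones) and stored at 25 °C. Content measured by reversed-phase UHPLC (C18, 0.5% formic acid water/acetonitrile gradient, DAD 220-400 nm, ESI-MS ion trap) after 1:100 dilution to 100 μM, against 100 μM standards, at T0, 3 days and 1 week.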

[5] = tested on: human corneal epithelial cells (hCEPIC); experiment: Permeability test across stratified human corneal epithelial cells; format: in vitro ADME; conditions: for Permeability (Papp): 50 μM, stratified human corneal epithelial cells
Description: as §1, §2, §3, §4, §5, §6

[6] = octanol/ISA water, read-out: logP
[7] = pH 7.4, pH 7.4, octanol/ISA water, read-out: Log D (7.4)

Sequence of IL-17RA/IL17RC dimerization induced by IL-17A (Q16552 24-155): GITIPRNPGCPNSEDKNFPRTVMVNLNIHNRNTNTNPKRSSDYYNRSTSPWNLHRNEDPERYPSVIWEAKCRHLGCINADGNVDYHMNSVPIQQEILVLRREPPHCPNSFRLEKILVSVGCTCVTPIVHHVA

Papp [1] [×10⁻⁶ cm/s]	IC50 [2] [nM]	IP (isoelectric point) [3]	logP ([3]; logP)	logD ([3]; pH 7.4, Log D (7.4))	solubility [4] [µM]	logP [3, 6]	logD [3, 7]	logP [3]	Log D (7.4) ([3]; pH 7.4)	SMILES	Permeability (Papp) [5]	permeability compared to high permeability standard Rhodamine B (in words) [5]
28.9	< 400	8.99	-5.4	-2.8	> 10000	–	–	–	–	CC[C@H](C)[C@H](NC(C)=O)C(=O)N[C@@H](Cc1c[nH]cn1)C(=O)N[C@H](C(=O)N[C@H](C(=O)N[C@H](C(=O)N1CCC[C@H]1C(=O)N[C@@H](C)C(=O)N[C@@H](CC(=O)O)C(=O)N[C@@H](CC(C)C)C(=O)N[C@@H](Cc1c[nH]c2ccccc12)C(=O)N[C@@H](CC(=O)O)C(=O)N[C@@H](Cc1c[nH]c2ccccc12)C(=O)N[C@H](C(=O)N[C@@H](CCCNC(=N)N)C(=O)N[C@@H](CCCNC(=N)N)C(N)=O)C(C)C)[C@@H](C)CC)[C@@H](C)O)C(C)C [SEQ ID NO: 14] (Ac-IHVTIPADLWDWVRR-NH2)	–	–
–	–	–	–	–	–	–	–	–	–	O=C(O)c1ccc2c(c1)C1(OC2=O)c2ccc(O)cc2Oc2cc(O)ccc21 [6-carboxyfluorescein, reference compound]	0.61±0.33 10^−6 cm/sec	–
–	–	–	–	–	–	–	–	–	–	CCN(CC)c1ccc2c(-c3ccccc3C(=O)O)c3ccc(=[N+](CC)CC)cc-3oc2c1.[Cl-] [Rhodamine B, reference compound]	51.26±5.44 10^−6 cm/sec	–
83.7	< 500	8.99	–	–	< 50	-0.38	-0.93	–	–	CC[C@H](C)[C@H](NC(=O)[C@@H](NC(=O)[C@@H](NC(=O)[C@H](Cc1c[nH]cn1)NC(=O)[C@@H](NC(C)=O)C(C)C)C(C)C)[C@@H](C)O)C(=O)N1CCC[C@H]1C(=O)N[C@@H](C)C(=O)N[C@@H](CCC(=O)O)C(=O)N[C@@H](CC(C)C)C(=O)N[C@@H](Cc1c[nH]c2ccccc12)C(=O)N[C@@H](CCC(=O)O)C(=O)N[C@@H](Cc1c[nH]c2ccccc12)C(=O)N[C@H](C(=O)N[C@@H](CCCNC(=N)N)C(=O)N[C@@H](CCCNC(=N)N)C(N)=O)C(C)C [SEQ ID NO: 111] (Ac-VHVTIPAELWEWVRR-NH2)	–	higher permeability compared to Rhodamine B
47.1	< 500	8.99	–	–	< 50	-0.51	-1.47	–	–	CC[C@H](C)[C@H](NC(=O)[C@@H](NC(=O)[C@@H](NC(=O)[C@H](Cc1c[nH]cn1)NC(=O)[C@@H](NC(C)=O)C(C)C)C(C)C)[C@@H](C)O)C(=O)N1CCC[C@H]1C(=O)N[C@@H](C)C(=O)N[C@@H](CC(=O)O)C(=O)N[C@@H](CC(C)C)C(=O)N[C@@H](Cc1c[nH]c2ccccc12)C(=O)N[C@@H](CCC(=O)O)C(=O)N[C@@H](Cc1c[nH]c2ccccc12)C(=O)N[C@@H](Cc1ccccc1)C(=O)N[C@@H](CCCNC(=N)N)C(=O)N[C@@H](CCCNC(=N)N)C(N)=O [SEQ ID NO: 121] (Ac-VHVTIPADLWEWFRR-NH2)	–	–
76.8	< 500	8.99	–	–	< 50	-0.13	-3.47	–	–	CC[C@H](C)[C@H](NC(=O)[C@H](CCC(N)=O)NC(=O)[C@@H](NC(=O)[C@H](Cc1c[nH]cn1)NC(=O)[C@@H](NC(C)=O)C(C)C)C(C)C)C(=O)N1CCC[C@H]1C(=O)N[C@@H](C)C(=O)N[C@@H](CC(=O)O)C(=O)N[C@@H](CC(C)C)C(=O)N[C@@H](Cc1c[nH]c2ccccc12)C(=O)N[C@@H](CCC(=O)O)C(=O)N[C@@H](Cc1c[nH]c2ccccc12)C(=O)N[C@H](C(=O)N[C@@H](CCCNC(=N)N)C(=O)N[C@@H](CCCNC(=N)N)C(N)=O)C(C)C [SEQ ID NO: 113] (Ac-VHVQIPADLWEWVRR-NH2)	–	higher permeability compared to Rhodamine B
68.8	< 500	8.99	–	–	< 50	-5.94	-3.91	–	–	CC[C@H](C)[C@H](NC(=O)[C@@H](NC(=O)[C@@H](NC(=O)[C@H](Cc1c[nH]cn1)NC(=O)[C@@H](NC(C)=O)C(C)C)C(C)C)[C@@H](C)O)C(=O)N1CCC[C@H]1C(=O)N[C@@H](CCC(N)=O)C(=O)N[C@@H](CC(=O)O)C(=O)N[C@@H](CC(C)C)C(=O)N[C@@H](Cc1c[nH]c2ccccc12)C(=O)N[C@@H](CCC(=O)O)C(=O)N[C@@H](Cc1c[nH]c2ccccc12)C(=O)N[C@H](C(=O)N[C@@H](CCCNC(=N)N)C(=O)N[C@@H](CCCNC(=N)N)C(N)=O)C(C)C [SEQ ID NO: 115] (Ac-VHVTIPQDLWEWVRR-NH2)	–	higher permeability compared to Rhodamine B
–	< 1000	12.25	–	–	≥ 100	–	–	−6.36	−6.44	CC[C@H](C)[C@H](NC(=O)[C@H](Cc1c[nH]c2ccccc12)NC(=O)[C@H](CCC(=O)O)NC(=O)[C@H](Cc1ccc(O)cc1)NC(=O)[C@H](CC(C)C)NC(=O)[C@H](CC(=O)O)NC(=O)[C@H](C)NC(=O)[C@@H]1CCCN1C(=O)[C@@H](NC(=O)[C@@H](NC(=O)[C@@H](NC(=O)[C@H](CCSC)NC(=O)[C@@H](NC(C)=O)C(C)C)C(C)C)[C@@H](C)O)[C@@H](C)CC)C(=O)N[C@@H](CCC(=O)O)C(=O)N[C@@H](CCC(=O)O)C(=O)N[C@@H](CCCNC(=N)N)C(=O)N[C@@H](CCC(N)=O)C(=O)N[C@H](C(=O)N[C@@H](CCCCN)C(=O)N[C@H](C(=O)N[C@@H](Cc1c[nH]c2ccccc12)C(=O)N[C@@H](Cc1ccccc1)C(=O)N[C@@H](CCC(N)=O)C(=O)N[C@@H](CC(N)=O)C(=O)N[C@@H](CCCNC(=N)N)C(=O)N[C@@H](CCCNC(=N)N)C(=O)N[C@@H](CCSC)C(=O)N[C@@H](CCCCN)C(=O)N[C@@H](Cc1c[nH]c2ccccc12)C(=O)N[C@@H](CCCCN)C(=O)N[C@@H](CCCCN)C(N)=O)[C@@H](C)CC)[C@@H](C)CC [SEQ ID NO: 28] (Ac-VMVTIPADLYEWIEERQIKIWFQNRRMKWKK-NH2)	–	–
28	< 400	4.25	1.05	-2.92	> 10000	–	–	–	–	CC[C@H](C)[C@H](NC(C)=O)C(=O)N[C@@H](Cc1c[nH]cn1)C(=O)N[C@H](C(=O)N[C@H](C(=O)N[C@H](C(=O)N1CCC[C@H]1C(=O)N[C@@H](C)C(=O)N[C@@H](CC(=O)O)C(=O)N[C@@H](CC(C)C)C(=O)N[C@@H](Cc1c[nH]c2ccccc12)C(=O)N[C@@H](CC(=O)O)C(=O)N[C@@H](Cc1c[nH]c2ccccc12)C(=O)N[C@H](C(=O)N[C@@H](CCC(=O)O)C(=O)N[C@@H](CCCCN)C(N)=O)[C@@H](C)CC)[C@@H](C)CC)[C@@H](C)O)C(C)C [SEQ ID NO: 11] (Ac-IHVTIPADLWDWIEK-NH2)	–	–
–	< 1000	3.54	–	–	> 10000	1.24	-1.94	–	–	CC(=O)N[C@@H](CC(=O)O)C(=O)N[C@@H](CC(C)C)C(=O)N[C@@H](CO)C(=O)N[C@@H](C)C(=O)N[C@H](C(=O)N[C@H]1CSSC[C@@H](C(=O)N[C@@H](Cc2c[nH]cn2)C(N)=O)NC(=O)[C@H](CCC(=O)O)NC(=O)[C@@H]2CCCN2C(=O)[C@H](CC(=O)O)NC(=O)[C@H](Cc2c[nH]c3ccccc23)NC(=O)[C@@H]2CCCN2C(=O)[C@H](Cc2ccccc2)NC(=O)[C@H](C)NC(=O)[C@H](Cc2c[nH]c3ccccc23)NC1=O)C(C)C [SEQ ID NO: 41]	–	–
